From patent US12129237B2, “Substituted diaminocarboxamide and diaminocarbonitrile pyrimidines, compositions thereof, and methods of treatment therewith” (SIGNAL PHARMACEUTICALS, LLC, priority 2011, dated 2024)
pIC50: −log10 of the molar value.

target: T1, JNK1 (Homo sapiens, UniProt P45983); test: JNK1 biochemical assays (one or more of: time resolved fluorescence, Z'-LYTE Cascade, radioactive); conditions: Table 2; JNK1 IC50 activity level; read-out: Act. Level
T1 construct: purchased Carna Biosciences
T1 sequence (P45983 whole entry): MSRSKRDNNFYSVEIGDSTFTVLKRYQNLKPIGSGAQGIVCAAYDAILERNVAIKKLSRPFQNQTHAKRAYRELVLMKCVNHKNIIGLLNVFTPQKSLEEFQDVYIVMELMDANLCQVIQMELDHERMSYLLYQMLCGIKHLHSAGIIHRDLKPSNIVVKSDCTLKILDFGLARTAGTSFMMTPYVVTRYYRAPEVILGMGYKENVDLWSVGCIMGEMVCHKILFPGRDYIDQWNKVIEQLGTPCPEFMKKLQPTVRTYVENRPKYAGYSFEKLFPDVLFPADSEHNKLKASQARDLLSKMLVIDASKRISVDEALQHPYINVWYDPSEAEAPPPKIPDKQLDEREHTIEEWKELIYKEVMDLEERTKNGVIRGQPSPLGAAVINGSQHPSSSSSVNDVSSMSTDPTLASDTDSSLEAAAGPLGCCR

Row | pIC50 | SMILES
1 | 6.10 to 6.70 | CC(C)Nc1nc(N[C@@H]2CCc3ncccc3C2)ncc1C(N)=O [Example B-81, (R)-4-(isopropylamino)-2-(5,6,7,8-tetrahydroquinolin-6-ylamino)pyrimidine-5-carboxamide]
2 | 5.00 to 6.00 | COc1ccc(-c2ccccc2)cc1Nc1ncc(C(N)=O)c(Nc2ccccc2)n1 [Example B-29, 2-(4-methoxybiphenyl-3-ylamino)-4-(phenylamino)pyrimidine-5-carboxamide]
3 | > 6.70 | CCC(C)Nc1ncc(C(N)=O)c(Nc2ccccc2)n1 (stereo not shown) [Example B-46, 2-(sec-butylamino)-4-(phenylamino)pyrimidine-5-carboxamide]
4 | > 6.70 | CC(C)(C)Nc1ncc(C(N)=O)c(Nc2ccccc2)n1 [Example B-12, 2-(tert-butylamino)-4-(phenylamino)pyrimidine-5-carboxamide]
5 | 6.10 to 6.70 | NC(=O)c1cnc(NCc2ccc(F)cc2F)nc1Nc1ccccc1 [Example B-57, 2-(2,4-difluorobenzylamino)-4-(phenylamino)pyrimidine-5-carboxamide]

same assay, conditions: Table 3; JNK1 IC50 activity level; read-out: Act. Level

Row | pIC50 | SMILES
6 | > 6.70 | CO[C@H]1CC[C@H](Nc2ncc(C#N)c(N[C@H]3CCCC[C@@](C)(O)C3)n2)CC1 [Example C-52, 4-((1S,3R)-3-hydroxy-3-methylcycloheptylamino)-2-((1r,4S)-4-methoxycyclohexylamino) pyrimidine-5-carbonitrile]
7 | > 6.70 | CN(C)C(=O)[C@H]1CC[C@H](Nc2ncc(C#N)c(N[C@@H]3CCC[C@](C)(O)C3)n2)CC1 [Example C-43, (1R,4r)-4-(5-cyano-4-((1R,3S)-3-hydroxy-3-methylcyclohexylamino)pyrimidin-2-ylamino)-N,N-dimethylcyclohexanecarboxamide]
8 | > 6.70 | CN(C)C(=O)C(C)(C)C1CCC(Nc2ncc(C#N)c(N[C@@H]3CCC[C@H](O)C3)n2)CC1 (stereo partly drawn) [Example C-34, 2-(4-(5-cyano-4-((1R,3S)-3-hydroxycyclohexylamino)pyrimidin-2-ylamino)cyclohexyl)-N,N,2-trimethylpropanamide]
9 | > 6.70 | CO[C@H]1CC[C@H](Nc2ncc(C#N)c(N[C@@H]3CCC[C@H](O)C3)n2)CC1 [Example C-4, 4-((1R,3S)-3-hydroxycyclohexylamino)-2-((1r,4R)-4-methoxycyclohexylamino) pyrimidine-5-carbonitrile]
10 | > 6.70 | N#Cc1cnc(N[C@H]2CC[C@H](OCC(F)(F)F)CC2)nc1N[C@@H]1CCCC[C@H](O)C1 [Example C-30, 4-((1R,3S)-3-hydroxycycloheptylamino)-2-((1r,4R)-4-(2,2,2-trifluoroethoxy)cyclohexylamino) pyrimidine-5-carbonitril]

same assay, conditions: one or more of the JNK1 biochemical assays; read-out: Act. Level (JNK1 IC50 activity level)

Row | pIC50 | SMILES
11 | > 6.70 | NC(=O)c1cnc(NC2CCC2)nc1N[C@@H]1CCCC[C@H](O)C1 [Example 339, 2-(cyclobutylamino)-4-((1R,3S)-3-hydroxycycloheptylamino)pyrimidine-5-carboxamide]
12 | > 6.70 | CC(C)(Nc1nc(N[C@@H]2CCC[C@@H](O)C2)ncc1C(N)=O)C1CC1 [Example 465, 4-(2-cyclopropylpropan-2-ylamino)-2-((1R,3R)-3-hydroxycyclohexylamino)pyrimidine-5-carboxamide]
13 | > 6.70 | CC1(Nc2ncc(C(N)=O)c(NC3CCC(C)(C)C(O)C3)n2)CC1 (stereo not shown) [Example 430, 4-(3-hydroxy-4,4-dimethylcyclohexylamino)-2-(1-methylcyclopropylamino)pyrimidine-5-carboxamide]
14 | > 6.70 | CC(C)(C)Nc1nc(N[C@H]2CCCC[C@H](O)C2)ncc1C(N)=O [Example 387, 4-(tert-butylamino)-2-((1S,3S)-3-hydroxycycloheptylamino)pyrimidine-5-carboxamide]
15 | > 6.70 | CCNc1ncc(C(N)=O)c(N[C@@H]2CC[C@@H](C)[C@H](O)C2)n1 [Example 494, 2-(ethylamino)-4-((1R,3R,4R)-3-hydroxy-4-methylcyclohexylamino)pyrimidine-5-carboxamide]
16 | > 6.70 | NC(=O)c1cnc(N[C@H]2CC[C@H](O)CC2)nc1NC12CC(C(F)(F)F)(C1)C2 [Example 440, 2-((1r,4r)-4-hydroxycyclohexylamino)-4-(3-(trifluoromethyl)bicyclo[1.1.1]pentan-1-ylamino)pyrimidine-5-carboxamide]
17 | > 6.70 | CC(C)Nc1nc(NC23CCC(O)(CC2)CC3)ncc1C(N)=O [Example 202, 2-(4-hydroxybicyclo[2.2.2]octan-1-ylamino)-4-(isopropylamino)pyrimidine-5-carboxamide]
18 | > 6.70 | NC(=O)c1cnc(NC2CCOCC2)nc1NC12CC(C1)C2 [Example 407, 4-(bicyclo[1.1.1]pentan-1-ylamino)-2-(tetrahydro-2H-pyran-4-ylamino)pyrimidine-5-carboxamide]
19 | > 6.70 | CCO[C@H]1CC[C@H](Nc2ncc(C(N)=O)c(NC(C)(C)C(C)(C)C)n2)CC1 [Example 332, 2-((1r,4r)-4-ethoxycyclohexylamino)-4-(2,3,3-trimethylbutan-2-ylamino)pyrimidine-5-carboxamide]
20 | > 6.70 | CC[C@@H](Nc1nc(N[C@H]2CC[C@H](O)CC2)ncc1C(N)=O)C1CC1 [Example 385, 4-((R)-1-cyclopropylpropylamino)-2-((1r,4R)-4-hydroxycyclohexylamino)pyrimidine-5-carboxamide]
21 | > 6.70 | CO[C@H]1CC[C@H](Nc2ncc(C(N)=O)c(N[C@H](C)C(C)(C)C)n2)CC1 [Example 279, 4-((R)-3,3-dimethylbutan-2-ylamino)-2-((1r,4R)-4-methoxycyclohexylamino)pyrimidine-5-carboxamide]
22 | > 6.70 | CC(C)Nc1nc(N[C@H]2CCC[C@@H](O)CC2)ncc1C(N)=O [Example 233, 2-((1S,4R)-4-hydroxycycloheptylamino)-4-(isopropylamino)pyrimidine-5-carboxamide]
23 | > 6.70 | C[C@@H]1CC[C@@H](Nc2nc(NC34CC(C3)C4)ncc2C(N)=O)C[C@H]1O [Example 264, 2-(bicyclo[1.1.1]pentan-1-ylamino)-4-((1R,3R,4R)-3-hydroxy-4-methylcyclohexylamino)pyrimidine-5-carboxamide]

same assay, conditions: tested in one or more of the JNK1 biochemical assays; read-out: Act. Level (JNK1 biochemical assay IC50 activity level)

Row | pIC50 | SMILES
24 | > 6.70 | CO[C@H]1CC[C@@H](Nc2nc(N[C@H]3CC[C@H](O)C3)ncc2C(N)=O)CC1 [Example A-81, 2-((1S,3S)-3-hydroxycyclopentylamino)-4-((1s,4R)-4-methoxycyclohexylamino)pyrimidine-5-carboxamide]
25 | > 6.70 | NC(=O)c1cnc(N[C@H]2CC[C@H](O)CC2)nc1NC1CCC1 [Example A-176, 4-(cyclobutylamino)-2-((1r,4r)-4-hydroxycyclohexylamino)pyrimidine-5-carboxamide]
26 | 6.10 to 6.70 | COC[C@H]1CC[C@H](Nc2ncc(C(N)=O)c(NC3CCN(C(C)=O)CC3)n2)CC1 [Example A-82, 4-(1-acetylpiperidin-4-ylamino)-2-((1r,4r)-4-(methoxymethyl)cyclohexylamino)pyrimidine-5-carboxamide]
27 | > 6.70 | CO[C@H]1CC[C@H](Nc2ncc(C(N)=O)c(NC3(CO)CCCC3)n2)CC1 [Example A-78, 4-(1-(hydroxymethyl)cyclopentylamino)-2-((1r,4r)-4-methoxycyclohexylamino)pyrimidine-5-carboxamide]
28 | > 6.70 | CCO[C@H]1CC[C@H](Nc2ncc(C(N)=O)c(N[C@H]3CCC[C@@H]3OC)n2)CC1 [Example A-103, 2-((1r,4S)-4-ethoxycyclohexylamino)-4-((1S,2S)-2-methoxycyclopentylamino)pyrimidine-5-carboxamide]
29 | > 6.70 | C[C@@H]1CC[C@@H](Nc2nc(N[C@H]3CC[C@H](OCC(F)(F)F)CC3)ncc2C(N)=O)C[C@H]1O [Example A-178, 4-((1R,3R,4R)-3-hydroxy-4-methylcyclohexylamino)-2-((1r,4R)-4-(2,2,2-trifluoroethoxy)cyclohexylamino)pyrimidine-5-carboxamide]
30 | > 6.70 | C[C@@H]1CC[C@@H](Nc2nc(NC3CCC(F)(F)CC3)ncc2C(N)=O)C[C@H]1O [Example A-198, 2-(4,4-difluorocyclohexylamino)-4-((1R,3R,4R)-3-hydroxy-4-methylcyclohexylamino)pyrimidine-5-carboxamide]
31 | > 6.70 | CC[C@@H](C)Nc1nc(N[C@H]2CC[C@H](O)CC2)ncc1C(N)=O [Example A-189, 4-(sec-butylamino)-2-((1r,4R)-4-hydroxycyclohexylamino)pyrimidine-5-carboxamide]
32 | 6.10 to 6.70 | CCO[C@H]1CC[C@@H](Nc2nc(NC3CCC3)ncc2C(N)=O)CC1 [Example A-135, 2-(cyclobutylamino)-4-((1s,4s)-4-ethoxycyclohexylamino)pyrimidine-5-carboxamide]
33 | > 6.70 | C[C@H](Nc1ncc(C(N)=O)c(N[C@H]2CC[C@@H](CO)CC2)n1)C1CCCCC1 [Example A-122, 2-((S)-1-cyclohexylethylamino)-4-((1s,4R)-4-(hydroxymethyl)cyclohexylamino)pyrimidine-5-carboxamide]
34 | > 6.70 | C[C@]1(O)CCC[C@@H](Nc2nc(N[C@H]3CC[C@H](OCC(F)(F)F)CC3)ncc2C(N)=O)C1 [Example A-168, 4-((1R,3S)-3-hydroxy-3-methylcyclohexylamino)-2-((1r,4R)-4-(2,2,2-trifluoroethoxy)cyclohexylamino)pyrimidine-5-carboxamid]
35 | > 6.70 | NC(=O)c1cnc(N[C@H]2CC[C@H](O)CC2)nc1N[C@@H]1CCCOC1 [Example A-193, 2-((1r,4R)-4-hydroxycyclohexylamino)-4-((R)-tetrahydro-2H-pyran-3-ylamino)pyrimidine-5-carboxamide]
36 | > 6.70 | C[C@@H]1CC[C@@H](Nc2nc(N[C@H]3CC[C@H](O)CC3)ncc2C(N)=O)C[C@H]1O [Example A-179, 4-((1R,3R,4R)-3-hydroxy-4-methylcyclohexylamino)-2-((1r,4R)-4-hydroxycyclohexylamino)pyrimidine-5-carboxamide]
37 | 6.10 to 6.70 | CCO[C@H]1CC[C@H](Nc2ncc(C(N)=O)c(N[C@H]3CCC[C@@H]3O)n2)C1 [Example A-64, 2-((1S,3S)-3-ethoxycyclopentylamino)-4-((1S,2S)-2-hydroxycyclopentylamino)pyrimidine-5-carboxamide]
